Results as given in patent publication US20230190760A1, “ADVANTAGEOUS THERAPIES FOR DISORDERS MEDIATED BY IKAROS OR AIOLOS” (C4 Therapeutics, Inc., priority 2020, published 2023).

Key:
[1] = molecular target: T1, cereblon-NanoLuc fusion protein in 293T cells (Homo sapiens, UniProt Q96SW2); experiment: In-cell cereblon competition (NanoBRET tracer displacement); format: cell-based; conditions: 2 hours at 37° C.; read-out: IC50, 50% of the tracer displaced
T1 construct: expressed in transfected cells; host or cells: 293T cells, lentiviral

NHL cell lines = experiment: NHL cell line growth inhibition assay (CellTiter-Glo, 96 hr); format: cell-based; conditions: variety of cancer assays (FIG. 45A-C, FIG. 52)
HepG2 liver cancer cells = experiment: Viability assay in HepG2 liver cancer cells; format: cell-based; conditions: concentrations up to 3.3 μM
IKZF1 = molecular target: T2, IKZF1 (Rattus norvegicus, UniProt A0A0G2JVD9); experiment: Ex vivo IKZF1 degradation in PBMC, rat; format: cell-based; conditions: rat cells
T2 construct: from tissue; host or cells: peripheral blood cells (PBMC) of rats, ex vivo
Experimental: (§1) IKZF1/3 are not degraded in mouse cells treated with thalidomide or its IMiD® analogs because of a single amino acid difference in mouse cereblon compared to human cereblon that causes steric hindrance and prevents recruitment of IKZF1/3. Ex vivo studies were performed in peripheral blood cells (PBMC) of mice, rats, dogs, and monkeys to identify relevant species for IND enabling-toxicity studies based on the degree of IKZF1 degradation by Compound 1. IKZF1 was not degraded in mouse or rat cells by Compound 1, thus, while rat could not be considered a pharmacologically relevant species for human risk assessment, it was chosen as the rodent species for toxicological studies because it is widely used in toxicity testing and a substantial historical toxicology database is available. […] Therefore, cynomolgus monkey was chosen for non-rodent toxicological studies.

IKZF1/3 = experiment: Ex vivo IKZF1/3 degradation in PBMC, dog; format: cell-based; conditions: dog cells
Experimental: as §1

[2] = tested on: NCI-H929 multiple myeloma tumors; experiment: NCI-H929 multiple myeloma xenograft, NOD SCID mice (Example 13); format: in vivo
Experimental: Compound 1 efficacy in two multiple myeloma cell lines (NC-H929) and (RPMI-8226) was evaluated at four different doses: 3 μg/kg, 10 μg/kg, 30 μg/kg, and 100 μg/kg. Compound 1 was administered QD (every day) orally (PO). […]
For the NCI-H929 cells, the xenograft study was conducted in female NOD SCID mice bearing NCI-H929 multiple myeloma tumors.
(§2) Statistical analysis was performed using two-way analysis of variance (ANOVA). Data are expressed as MTV±SEM.

[3] = tested on: REC1 mantle cell lymphoma tumors; experiment: REC1 mantle cell lymphoma xenograft, balb/c nude mice; format: in vivo
Experimental: A xenograft study was conducted in female balb/c nude mice bearing REC1 mantle cell lymphoma tumors.
as §2

TMD8 DLBCL tumors = experiment: TMD8 DLBCL xenograft, NOD SCID mice; format: in vivo
Experimental: A xenograft study was also conducted in female NOD SCID mice bearing TMD8 DLBCL tumors.
as §2

KI-JK ALCL tumors = experiment: KI-JK ALCL xenograft efficacy (Example 17); format: in vivo, mice; conditions: 30 or 100 μg/kg PO daily for 21 days
Experimental: A xenograft study was conducted in female NOD SCID mice bearing KI-JK ALCL tumors.
Data are expressed as MTV±SEM.

IKZF1 and IKZF3 = IKZF1 and IKZF3 in blood cells of a monkey by flow cytometry; format: in vivo, cynomolgus monkey; conditions: 30 μg/kg oral gavage, 4-hour and 24-hour timepoint
Experimental: One fasted male cynomolgus monkey was administered Compound 1 formulated in 1% carboxymethylcellulose sodium+20% PEG400 in citrate buffer at 30 μg/kg by oral gavage. At indicated timepoints, blood was collected from a peripheral vessel from a restrained, non sedated monkey. 50 uL of whole blood was added to a flow tube with 1 ml PBS, centrifuged for 5 minutes at 400×g and supernatant discarded. Blood was lysed in 1 mL of lysis buffer for 10-15 minutes at room temperature, centrifuged for 5 minutes at 400× and supernatant discarded. PBS (1 mL) was added to each tube, centrifuged for 5 minutes at 400×g and supernatant discarded. PBS (1 mL) was added together with 1 ul of Zombie NIR dye to the white blood cells and incubated for 20 minutes at room temperature. The cells were centrifuged for 5 minutes at 400×g and supernatant discarded. Fixation buffer (1 mL) was added and incubated for 20 minutes at room temperature. Cells were washed with permeabilization buffer (1 mL) and centrifuged for 5 minutes at 400×g and supernatant discarded. […] Cells were washed twice with PBS (1 mL), resuspended in PBS and analyzed analyzed on a BD LSR Fortessa Flow Cytometer. FIG. 24 is a graph of the percent mean fluorescence intensity of IKZF1 and IZKF3 at 4 h and 24 hr post dose compared to the pre-dose sample. […]

OCI-LY10 = experiment: Anti-proliferative activity, 96 hours; conditions: Homo sapiens, OCI-Ly10, 96 h
SU-DHL-2 = experiment: Anti-proliferative activity, 96 hours; conditions: Homo sapiens, SU-DHL-2, 96 h
KIJK = experiment: Anti-proliferative activity, 96 hours
SR = experiment: Anti-proliferative activity, 96 hours; conditions: Homo sapiens
Rec-1 = experiment: Anti-proliferative activity, 96 hours; conditions: Homo sapiens, Rec1, 96 h
Jeko-1 = experiment: Anti-proliferative activity, 96 hours; conditions: Homo sapiens, JeKo-1, 96 h
OPM-2 = experiment: Anti-proliferative activity, 96 hours; conditions: Homo sapiens, OPM-2, 96 h
LP-1 = experiment: Anti-proliferative activity, 96 hours; conditions: Homo sapiens, LP-1, 96 h
[4] = tested on: IMiD-resistant NCIH929 cells; experiment: Growth of IMiD-resistant NCIH929 cells (CellTiter-Glo)

SMILES: O=C1CC[C@H](N2C(=O)c3cccc4c(Cc5ccc(CN6CCOCC6)cc5)ccc2c34)C(=O)N1 (single isomer, unassigned) [Compound 1]
- IC50 [1]: 0.4 nM
- more potent than pomalidomide (NHL cell lines): more than 100 fold
- effect on viability (HepG2 liver cancer cells): no significant effect
- IKZF1 degradation (IKZF1): not degraded
- effect on IKZF1/3 (IKZF1/3): no effect
- Statistical Significance Compared to Vehicle ([2]; 3 μg/kg PO QD): 0.04
- Statistical Significance Compared to Vehicle ([2]; 10 μg/kg PO QD): 0.0002
- Statistical Significance Compared to Vehicle ([2]; 30 μg/kg PO QD): 0.0004
- Statistical Significance Compared to Vehicle ([2]; 100 μg/kg PO QD): 0.0004
- tumor volume versus pomalidomide 3000 μg/kg ([2]; 3, 10, 30 and 100 μg/kg, NCI-H929 and RPMI-8226): reduced tumor volume more than pomalidomide
- Statistical Significance Compared to Vehicle ([3]; 30 μg/kg PO daily): 0.04
- Statistical Significance Compared to Vehicle ([3]; 100 μg/kg PO daily): 0.04
- tumor volume ([3]; Compound 1 10, 30, or 100 μg/kg, pomalidomide 3000 μg/kg, 18 days): decreased
- Statistical Significance Compared to Vehicle (TMD8 DLBCL tumors; 100 μg/kg PO daily): <0.0001
- tumor volume (TMD8 DLBCL tumors; Compound 1 100 μg/kg, pomalidomide 3000 μg/kg, 18 days): decreased
- tumor volume (KI-JK ALCL tumors): decreased
- levels of IKZF1 and IKZF3 versus pre-dose (IKZF1 and IKZF3): smaller
- IC50 (OCI-LY10): 0.03 nM
- IC50 (SU-DHL-2): 4.55 nM
- IC50 (KIJK): 0.583 nM
- IC50 (SR): 16.2 nM
- IC50 (Rec-1): 0.353 nM
- IC50 (Jeko-1): 43.2 nM
- IC50 (OPM-2): 0.058 nM
- IC50 (LP-1): 0.642 nM
- maximal inhibition ([4]; 96 hours): 70%
- IC50 ([4]; Homo sapiens, NCI-H929, 96 h): 2.3 nM
